In patent US11497717B2, “Nanoparticles for use for treating a neuronal disorder” (NANOBIOTIX S.A., priority 2017, dated 2022):

B1: GDNF: glial cell-derived neurotrophic factor, neuroprotector used as reference (protein, UniProt P39905 78-211, looked up)
Glial cell line-derived …: SPDKQMAVLPRRERNRQAAAANPENSRGKGRRGQRGKNRGCVLTAIHLNVTDLGLGYETKEELIFRYCSGSCDAAETTYDKILKNLSRNRRLVSDKVGQACCRPIAFDDDLSFLDDNLVYHILRKHSAKRCGCI

Key:
[1] = tested on: amyloid beta 1-42 (Abeta 1-42)-induced model of Alzheimer's disease in frontal cortex cultures of mouse neurons; test: Rescue of amyloid beta 1-42-induced functional effects on neuronal networks, phenotypic MEA screening (Example 8); assay type: cell-based
[2] = tested on: MPP^+-treated mouse ventral midbrain/cortex co-cultures; test: Prevention/rescue efficacy on MPP+-induced neuronal networks, phenotypic MEA screening (Example 7); assay type: cell-based
Procedure: The prevention/rescue efficacy of nanoparticles of the invention was tested on MPP^+-treated mouse ventral midbrain/cortex co-cultures, cultured on a 48-wells MEA for 3 weeks. This model represents an in vitro Parkinson's model for screening compounds, based on the functional rescue of dopaminergic neurons using challenged midbrain/cortex cultures growing on MEAs. Midbrain is a region of the brain including the substantia nigra which is part of the basal ganglia and which contains most of the dopaminergic neurons. The evaluation of the nanoparticles' prevention/rescue effect was performed via the measurement of the extracellular electrical activity of the co-culture of neurons plated on Microelectrode Array (MEA) chips. […]
Midbrain and frontal cortex tissue was harvested from embryonic day 14.5 chr:NMRI mice (Charles River). […] Tissue was dissociated by enzymatic digestion (133.3 Kunitz units/ml DNase; 10 Units/ml Papain) and mechanical trituration, counted, vitality controlled, and plated in a 20 μl drop of DMEM containing laminin (10 μg/ml), 10% fetal bovine serum and 10% horse serum on MEAs. Cultures on MEAs were incubated at 37° C. in a 10% CO2 atmosphere until ready for use. […]
At day 21, 120 minutes of neuronal activity were recorded, and 30 minutes of stable activity were analyzed (FIG. 6). […]
Each unit represents the activity originating from one neuron recorded at one electrode. […]

Row | Molecule | Effect Score ([1]; Abeta 1-42 100 nM at T0, nanoparticles (800 μM; [BaTiO3]=2000 μM) or donepezil 300 nM at T0+4 h, Control=0, Abeta group=1, 15 of 204 parameters) | Rescue efficacy ([1]; same treatment as Effect Score, Control set at 100%, Abeta group 0%) [%] | Effect Score ([2]; nanoparticles ([Au] or [Si]=800 μM; [BaTiO3]=2000 μM) or GDNF 20 ng/ml at day 7, MPP+ 20 μM at day 8, recording at day 21, Control=0, MPP+ group=1, 18 of 204 parameters) | Prevention/rescue efficacy ([2]; same treatment as Effect Score, Control set at 100%, MPP+ group 0%) [%]
1 | COc1cc2c(cc1OC)C(=O)C(CC1CCN(Cc3ccccc3)CC1)C2 (stereo not shown) [Donepezil, donepezil] | 0.46 | 54 | – | –
2 | B1 | – | – | 0.44 | 56
